Data published in patent US10968214B2, “KRas G12C inhibitors” (Eli Lilly and Company, priority 2018, dated 2021).
Like-named read-outs stand apart in the source and are kept apart here.

Assays:
[1] = target: KRas G12C (Homo sapiens, UniProt P01116, G12C); test: KRas G12C Probe Occupancy TR-FRET Assay; format: binding; conditions: 60 min incubation of inhibitor with KRas G12C; read-out: TR-FRET 60 min
Description: Inhibitors are tested in dose response format from 10 mM stocks in 100% DMSO. The Labycyte Echo® 555 is used to dilute and transfer 100 nL per well containing a 10 point, 2.8-fold serial dilution to an assay plate. […] The signal ratio (em at 665/em at 615) is converted to percent inhibition using the following equation: % Inhibition=100−[(Test Compound Signal−Median Minimum Signal)/(Median Maximum Signal−Median Minimum Signal)×100].

[2] = tested on: phosphorylation of p-ERK1/2 in H358 cells; test: H358 Cellular Phospho-ERK AlphaLISA; format: cell-based, Human; conditions: read-out: pERK
Description: This assay is used to measure the ability of test compounds to inhibit the phosphorylation of p-ERK1/2, a downstream effector of KRas in Human lung cancer cells H358 (ATCC CRL-5807). Briefly, the AlphaLISA® SureFire® Ultra™ p-ERK 1/2 (Thr202/Tyr204) assay is a sandwich immunoassay for quantitative detection of phospho-ERK 1/2 (phosphorylated on Thr202/Tyr204 in ERK1, or Thr185/Tyr187 in ERK2) in cellular lysates using Alpha Technology (Perkin Elmer Cat #ALSU-PERK-A50K).
H358 cells are plated at 40K cells per well in 100 μL media (RPMI 1640, GIBCO Cat #22400-071) containing 10% FBS (GIBCO Cat #: 10082-147) in a 96 well plate (Costar #3596) and are incubated overnight in humid trays at 37° C., 5% CO2. The next morning, 10 μL of serially-diluted (3-fold) test compounds (50 μM top concentration) and 10 uL of controls (Maximum signal wells: 5% DMSO and Minimum signal wells: 2 μM of N-(3-{3-cyclopropyl-5-[(2-fluoro-4-iodophenyl)amino]-6,8-dimethyl-2,4,7-trioxo-3,4,6,7-tetrahydropyrido[4,3-D]pyrimidin-1(2H)-yl}phenyl)acetamide (trametinib, as a positive control) are added to the cell plate and incubated for 2 hr in humid trays at 37° C./5% CO2. Lysis Buffer is prepared at RT containing a protease and phosphatase inhibitor cocktail. Culture medium is removed by inverting and shaking the cell plate in the sink and then blotting onto a paper towel. Lysis buffer is added to the cell plate (50 μL per well) and the plate is incubated at RT for 10 min on a shaker. For p-ERK detection, acceptor beads are diluted into a suspension mixture with buffer. Using a Starlett liquid handler, 5 μL of acceptor beads and 2 μL of cell lysate are transferred as a single-step in-tip dilution to a 384 well assay plate. The assay plate is sealed with foil and is incubated at RT for 2 hrs. Donor beads are diluted into a suspension mixture with buffer. Using the Starlet, 5 μL of donor beads are added to the assay plate that is then sealed, wrapped with foil. The plate is incubated at RT for 2 hrs in the dark. The assay plate is then read on an EnVision™ Plate Reader (Perkin Elmer) using a luminescence program.
The signal is converted to percent inhibition using the following equation: % Inhibition=100−[(Test Compound Signal−Median Minimum Signal)/(Median Maximum Signal−Median Min Signal)×100]. The Maximum signal is a control well without inhibitor.

[3] = target: T1, constitutive RAS GTPAse activity in H358 cells (Homo sapiens, UniProt P01116, G12C); test: H358 Cellular Active RAS GTPase ELISA; format: cell-based; conditions: 2 hr, read-out: RAS-GTP
T1 construct: host or cells: H358 human lung cancer cells
Source text: This assay is used to measure the ability of test compounds to inhibit constitutive RAS GTPAse activity in human lung cancer cells H358 (ATCC CRL-5807). The RAS GTPase ELISA kit (Active Motif Cat #52097) contains a 96-well plate pre-coated with glutathione in order to capture a kit-supplied GST-Raf-RBD protein. Activated RAS (GTP-bound) in cell extracts specifically bind to the Raf-RBD. Bound RAS is detected with a primary antibody that recognizes human KRas. A secondary antibody conjugated with HRP recognizes the primary antibody and a development solution provides a chemiluminescent readout.
H358 cells are plated at 80,000 cells/well in 90 μL serum free media (RPMI 1640, GIBCO) and incubated overnight at 37° C./5% CO2. The next morning, 10 μL of serially-diluted (3-fold) test compounds (500 μM top concentration) and 10 μL of controls (Maximum signal wells: 5% DMSO and Minimum signal wells: 500 μM LSN3429410 as an inhibitor) are added to the cell plate and incubated for 2 hr at 37° C./5% CO2. Complete Lysis/Binding Buffer is prepared containing Protease Inhibitor cocktail and GST-Raf-RBD and stored on ice. One hour before cell plate incubation is completed, 50 μL of GST-Raf-RBD is diluted in lysis/binding buffer, and buffer is added to the ELISA assay plate and which is incubated for 1 hour at 4° C. with gently rocking. After 2 hr, the cells are washed with 100 μL ice-cold PBS and lysed with 100 μL lysis/binding buffer. The cell plate is shaken for 10 min at RT. The cell plate is then centrifuged at 1500 rpm for 10 min at RT. During this time, 1× Wash Buffer is prepared at RT and then is used to wash (3×100 μL) the GST-Raf-RBD coated assay plate. After washing, 50 μL of cell lysate is added to the GST-Raf-RBD coated assay plate and incubated for 1 hour at RT with gentle shaking. During this incubation period, 1× Antibody Binding Buffer is prepared and brought to RT. The assay plate is washed 3×100 μL with 1× Wash Buffer and then 50 μL of Primary Antibody (diluted 1:500 in 1× Antibody Binding buffer) is added. The plate is incubated for 1 hour at RT. The assay plate is washed 3×100 μl with 1× Wash Buffer and then 50 μL of Secondary Antibody (diluted 1:5000 in 1× Antibody Binding buffer) is added and incubated for 1 hour at RT. The assay plate is washed 4×100 μL with 1× Wash buffer and then 50 μL of chemiluminescent working solution is added at RT. The assay plate is then read on an EnVision™ Plate Reader (Perkin Elmer) using a luminescence program.
The signal is converted to percent inhibition using the following equation: % Inhibition=100−[(Test Compound Signal−Median Minimum Signal)/(Median Maximum Signal−Median Minimum Signal)×100]. The Maximum signal is a control well without inhibitor.

[4] = tested on: EL3187 (PDX); test: Anti-tumor growth activity, EL3187 lung PDX; format: in vivo; conditions: EL3187 Lung PDX; Afatinib 25 mg/kg QDx28

T1 sequence (P01116 1-188 isoform P01116-2 G12C): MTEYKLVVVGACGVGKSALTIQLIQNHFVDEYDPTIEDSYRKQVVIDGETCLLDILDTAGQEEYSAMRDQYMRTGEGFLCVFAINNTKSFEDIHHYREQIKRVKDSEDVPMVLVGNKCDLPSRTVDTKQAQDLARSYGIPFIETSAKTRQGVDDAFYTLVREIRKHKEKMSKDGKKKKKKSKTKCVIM
KRas G12C, sequence (P01116 1-188 isoform P01116-2 G12C): as above

| Structure (SMILES) | IC50 [1] [nM] | IC50 ([2]; 2 hr) [nM] | IC50 [3] [nM] | IC50 ([2]; Homo sapiens, NCI-H358, 2 h) [nM] | In Vivo Anti-Tumor Activities [4] |
| --- | --- | --- | --- | --- | --- |
| CN(C)C/C=C/C(=O)Nc1cc2c(Nc3ccc(F)c(Cl)c3)ncnc2cc1O[C@H]1CCOC1 [Afatinib, afatinib, reference compound] |  |  |  |  | 17.1 |
| C=CC(=O)N1CCN(c2ncnc3cc(-c4ccc(F)c5sc(N)nc45)c(Cl)cc23)CC1 [Example 4, 1-{4-[7-(2-Amino-7-fluoro-1,3-benzothiazol-4-yl)-6-chloroquinazolin-4-yl]piperazin-1-yl}prop-2-en-1-one] | 25 |  | 234 | 27.1 |  |
| C=CC(=O)N1CCN(c2ncnc3c(F)c(-c4cccc5sc(N)nc45)c(Cl)cc23)CC1 [Example 5, 1-{4-[7-(2-Amino-1,3-benzothiazol-4-yl)-6-chloro-8-fluoroquinazolin-4-yl]piperazin-1-yl}prop-2-en-1-one] | 27.8 |  | 104 | 9.73 |  |
| C=CC(=O)N1CCN(c2ncnc3c(F)c(-c4c(O)cccc4F)c(Cl)cc23)CC1 [reference compound] |  |  | 3780 | 1600 |  |
| C=CC(=O)N1CCN(c2ncnc3c(F)c(-c4cc(O)cc5ccccc45)c(Cl)cc23)CC1 [reference compound] | 45.2 |  | 392 | 204 |  |
| C=CC(=O)N1CCN(c2ncnc3cc(-c4ccc5oc(N)nc5c4)c(Cl)cc23)CC1 [reference compound] | 82200 |  | > 50000 | > 5000 |  |

Continued, in another order:

| IC50 [1] [nM] | IC50 ([2]; 2 hr) [nM] | IC50 [3] [nM] | IC50 ([2]; Homo sapiens, NCI-H358, 2 h) [nM] | Structure (SMILES) | In Vivo Anti-Tumor Activities [4] |
| --- | --- | --- | --- | --- | --- |
| < 18.9 | 3.94 | 11.7 |  | C=CC(=O)N1CCN(c2ncnc3c(F)c(-c4c(F)cc(F)c5sc(N)nc45)c(Cl)cc23)CC1 (single isomer, unassigned) [Example 6a, 1-{4-[7-(2-Amino-5,7-difluoro-1,3-benzothiazol-4-yl)-6-chloro-8-fluoroquinazolin-4-yl]piperazin-1-yl}prop-2-en-1-one] |  |
| 449 | 256 | 743 |  | C=CC(=O)N1CCN(c2ncnc3c(F)c(-c4c(F)cc(F)c5sc(N)nc45)c(Cl)cc23)CC1 (single isomer, unassigned) [Example 6b, 1-{4-[7-(2-Amino-5,7-difluoro-1,3-benzothiazol-4-yl)-6-chloro-8-fluoroquinazolin-4-yl]piperazin-1-yl}prop-2-en-1-one] |  |
| 47.6 |  | 148 | 19.4 | C=CC(=O)N1CCN(c2ncnc3c(Cl)c(-c4ccc(F)c5sc(N)nc45)c(Cl)cc23)CC1 [Example 2, 1-{4-[7-(2-Amino-7-fluoro-1,3-benzothiazol-4-yl)-6,8-dichloroquinazolin-4-yl]piperazin-1-yl}prop-2-en-1-one] |  |
| 20.9 |  | 166 | 15.3 | C=CC(=O)N1CCN(c2ncnc3c(F)c(-c4cc(F)c(F)c5sc(N)nc45)c(Cl)cc23)CC1 [Example 3, 1-{4-[7-(2-Amino-6,7-difluoro-1,3-benzothiazol-4-yl)-6-chloro-8-fluoroquinazolin-4-yl]piperazin-1-yl}prop-2-en-1-one] |  |
